From paper PMC8766756, “Insights on Cancer Cell Inhibition, Subcellular Activities, and Kinase Profile of Phenylacetamides Pending 1H-Imidazol-5-One Variants” (Frontiers in Pharmacology, 2022)
Like-named read-outs stand apart in the source and are kept apart here.

Key:
[1] = test system: MCF7 breast cancer cell line; assay: SRB cytotoxicity assay; format: cell-based, human; details: MCF7, SRB, 72 h, read-out: IC50 ± SEM MCF7
Procedure: (§1) The compounds were screened for their anticancer activities against a variety of cancer cell lines. The cytotoxic effect of the compounds was evaluated using the sulforhodamine B (SRB) cytotoxicity assay for breast cancer line (MCF7) and prostate cancer cell line (PC3) ([Vichai and Kirtikara, 2006]; [Rana et al., 2021]) and 3-(4,5-dimethylthiazol-2-yl)-2,5-diphenyl-2H-tetrazolium bromide (MTT) assay for the colon cancer (HCT116) cell lines ([El-Huneidi et al., 2020]). The CellTiter-Blue® cell viability assay was performed on the various leukemia cell lines, HL60, NB4, and KG1a cells ([Akter et al., 2019]). The IC50 values are illustrated in Table 1.
(§2) MCF7 (breast), PC3 (prostate), and HCT116 (colon) cancer cell lines were obtained from ATCC, Manassas, VA, USA. Cells were grown in Roswell Park Memorial Institute-1640 (RPMI-1640) medium (Thermo Fisher Scientific, Inc., Waltham, MA, USA), supplemented with 10% heat inactivated fetal bovine serum (FBS), 50 units/mL of penicillin, and […] of streptomycin and maintained at 37°C in a humidified atmosphere containing 5% CO2. The cells were maintained as “monolayer culture” by serial subculturing.
(§3) Exponentially growing MCF7 and PC3 cells were collected using 0.25% Trypsin-EDTA and were then seeded in 96-well plates at a density of 1,000–2,000 cells/well in 10% FBS and penicillin/streptomycin supplemented RPMI-1640 medium. After 24 h, the cells were treated with different concentrations of the test compounds and incubated for 72 h at 37°C in a humidified atmosphere containing 5% CO2. Next, the cells were fixed by trichloroacetic acid (TCA) (10% final concentration in wells) directly to the wells and incubated for 1 h at 4°C, then the cells were washed with distilled water five times to remove excess TCA, media, serum proteins, and metabolites, followed by air drying. After that, the fixed cells were stained with 0.4% SRB dissolved in 1% acetic acid for 10 min at room temperature, and excess stain was removed by quickly rinsing with 1% acetic acid. The residual acetic acid was removed completely by air drying the plates for 24 h, and the dye was solubilized with Tris buffer (pH = 7.4, 10 mM) for 5 min on a shaker at 1,600 rpm. The optical density of each well was measured spectrophotometrically at 564 nm with an ELISA microplate reader (ChroMate-4300, FL, USA). The IC50 values were calculated according to the equation for Boltzman sigmoidal concentration–response curve using the nonlinear regression fitting models (GraphPad®, Prism Version 5).

[2] = test system: PC3 prostate cancer cell line; assay: SRB cytotoxicity assay; format: cell-based, human; details: 72 h, read-out: IC50 ± SEM PC3
Procedure: as §1, §2, §3

[3] = test system: bovine brain tubulin; assay: Tubulin polymerization assay (cell-free); format: biochemical; details: 10 and 30 µM, compared with KX2-391 (10 µM)
Procedure: KX2-391 (KX-01), the prototype of KIM-161, is a known powerful tubulin polymerization inhibitor. Consequently, we investigated its effect on tubulin polymerization using a cell-free assay that also included paclitaxel as another positive reference that affects tubulin function through stabilization of tubulin polymers (Figure 9).
FIGURE 9 Tubulin polymerization assay for KIM-161 at 10 and 30 µM compared to paclitaxel (10 µM) and KX2-391 (10 µM) as positive controls. The negative control (vehicle) contained DMSO (1% v/v). The effect on the tubulin assembly was monitored turbidometrically at 340 nm every 30 s for 60 min at 37°C. Fold inhibition of tubulin polymerization was calculated using the V max value for each reaction. The results represent the mean for three separate experiments.
The assembly of purified bovine tubulin was monitored using a kit BK006 purchased from Cytoskeleton Inc. (Denver, CO, USA). The assay was carried out in accordance with the manufacturer's instructions in the tubulin polymerization assay kit manual using the standard assay conditions. The values reported represent the average values from two independent assays. […] Therefore, tubulin assembly was monitored turbidimetrically at 340 nm at 37°C in a Spectramax 340 PC spectrophotometer (Molecular Devices, Sunnyvale, CA, USA). The absorbance was measured at 30-s intervals for 60 min.

[4] = molecular target: T1, human cytochrome P450 2C9 (Homo sapiens, UniProt P11712); assay: Inhibition assay of human CYP450 enzymes; format: in vitro ADME; details: fluorescent substrate
T1 construct: purchased Fisher Scientific, Waltham, MA; host or cells: insect cells (Supersomes)
Procedure: (§4) KIM-161 was assessed for its ability to inhibit the three major human CYP450 enzymes: 3A4, 2D6, and 2C9. The assays were run in triplicate. The expressed enzymes in insect Supersomes (Fisher Scientific, Waltham, MA) were used to minimize nonspecific binding and membrane partitioning issues ([McMasters et al., 2007]). The 3A4 assay uses testosterone as a substrate, and the analysis was performed by LC/MS/MS on a Waters Xevo TQ instrument as described above, using positive electrospray ionization. The assay acceptance criterion was 20% for all standards and 25% for the LLOQ. The 2D6 and 2C9 assays use fluorescent substrates (3-[2-(N,N-diethylamino)ethyl]-7-methoxy-4-methylcoumarin for 2D6; 7-methoxy-4-(trifluromethyl)coumarin for 2C9) and were analyzed on an Envision plate reader. GraphPad® Prism v.5.04 was used for nonlinear fitting of data to generate IC50 values.

[5] = molecular target: T2, human cytochrome P450 2D6 (Homo sapiens, UniProt P10635); assay: Inhibition assay of human CYP450 enzymes; format: in vitro ADME; details: fluorescent substrate
T2 construct: purchased Fisher Scientific, Waltham, MA; host or cells: insect cells (Supersomes)
Procedure: as §4

[6] = molecular target: T3, human cytochrome P450 3A4 (Homo sapiens, UniProt P08684); assay: Inhibition assay of human CYP450 enzymes; format: in vitro ADME; details: testosterone substrate
T3 construct: purchased Fisher Scientific, Waltham, MA; host or cells: insect cells (Supersomes)
Procedure: as §4

T1 sequence (P11712 whole entry): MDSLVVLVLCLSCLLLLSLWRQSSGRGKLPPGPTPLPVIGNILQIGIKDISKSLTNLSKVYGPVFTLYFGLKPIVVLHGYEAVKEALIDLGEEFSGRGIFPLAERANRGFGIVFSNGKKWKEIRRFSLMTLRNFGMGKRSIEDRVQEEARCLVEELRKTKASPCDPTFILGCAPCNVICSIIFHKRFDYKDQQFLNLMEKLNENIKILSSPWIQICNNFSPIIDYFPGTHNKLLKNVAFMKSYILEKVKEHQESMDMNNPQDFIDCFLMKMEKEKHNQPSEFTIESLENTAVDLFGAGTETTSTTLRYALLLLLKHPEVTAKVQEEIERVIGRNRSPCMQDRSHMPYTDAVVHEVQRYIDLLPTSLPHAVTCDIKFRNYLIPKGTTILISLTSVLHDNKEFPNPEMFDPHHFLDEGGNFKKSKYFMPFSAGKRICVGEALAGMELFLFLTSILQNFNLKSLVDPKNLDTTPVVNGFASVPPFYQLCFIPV
T3 sequence (P08684 whole entry): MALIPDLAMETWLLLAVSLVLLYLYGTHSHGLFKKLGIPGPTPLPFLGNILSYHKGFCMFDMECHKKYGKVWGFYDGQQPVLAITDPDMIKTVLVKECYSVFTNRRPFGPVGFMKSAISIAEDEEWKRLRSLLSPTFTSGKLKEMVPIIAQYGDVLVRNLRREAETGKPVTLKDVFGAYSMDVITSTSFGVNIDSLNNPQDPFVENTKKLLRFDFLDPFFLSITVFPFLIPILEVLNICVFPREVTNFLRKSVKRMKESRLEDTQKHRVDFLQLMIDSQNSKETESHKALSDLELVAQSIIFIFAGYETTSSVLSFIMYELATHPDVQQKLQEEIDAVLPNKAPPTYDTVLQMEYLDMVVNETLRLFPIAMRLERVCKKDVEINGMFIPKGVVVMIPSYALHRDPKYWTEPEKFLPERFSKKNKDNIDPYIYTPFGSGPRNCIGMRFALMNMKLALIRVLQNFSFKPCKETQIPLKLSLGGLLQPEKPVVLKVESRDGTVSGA
T2 sequence (P10635 whole entry): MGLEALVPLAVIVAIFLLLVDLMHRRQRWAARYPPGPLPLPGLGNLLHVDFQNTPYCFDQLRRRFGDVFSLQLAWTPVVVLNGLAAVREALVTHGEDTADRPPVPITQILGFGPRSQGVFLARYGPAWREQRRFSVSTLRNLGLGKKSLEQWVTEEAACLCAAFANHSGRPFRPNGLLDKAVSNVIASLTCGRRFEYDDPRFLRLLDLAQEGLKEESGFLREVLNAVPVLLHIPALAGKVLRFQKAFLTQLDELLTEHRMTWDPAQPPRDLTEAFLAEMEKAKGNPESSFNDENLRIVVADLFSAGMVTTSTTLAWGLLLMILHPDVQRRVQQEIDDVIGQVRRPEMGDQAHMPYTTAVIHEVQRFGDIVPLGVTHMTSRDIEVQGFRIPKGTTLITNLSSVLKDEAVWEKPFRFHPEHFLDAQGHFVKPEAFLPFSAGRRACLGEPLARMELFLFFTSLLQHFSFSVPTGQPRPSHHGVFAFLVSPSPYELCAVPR

COc1ccc(/C=C2\N=C(C)N(c3ccc(CC(=O)NCc4ccccc4)cc3)C2=O)cc1 [Compound 4c, (Z)-N-Benzyl-2-(4-(4-(4-methoxybenzylidene)-2-methyl-5-oxo-4,5-dihydro-1H-imidazol-1-yl)phenyl)acetamide]
IC50 ([1]; Homo sapiens, MCF7, 72 h): 1.14 µM
IC50 [1]: 1.14 ± 0.19 µM
IC50 [2]: 2.14 ± 0.34 µM
IC50 ([2]; Homo sapiens): 2.13 µM
tubulin polymerization inhibition [3]: much weaker tubulin polymerization inhibition than KX2-391
IC50 [4]: ≥ 10 µM
IC50 [5]: ≥ 10 µM
IC50 [6]: ≥ 10 µM
